Where a name gives a salt, the structure may show the parent alone. ± gives the standard deviation of the averaged measurements.
System: HepaRG
Assay: LDH release cytotoxicity, % of total lysis control; higher = more cytotoxic
Details: 48 h
Outline: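 On collagen I-coated 96-well plates, single-lot HepaRG cells were exposed for 48 h, in duplicate, to eight-point half-log series of test chemicals beginning at 100 µM. The exposure medium was serum-free induction medium with 0.5% DMSO, and total lysis wells got 0.1% Triton X. Resorufin fluorescence from the CytoTox-ONE reaction, read on a Tecan Safire, reported LDH in 50 µL of spent medium. Percent cytotoxicity came from normalization to on-plate vehicle and total lysis controls, averaged over the duplicates.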

Structure (SMILES) | LDH release cytotoxicity (0.03162 µM) | LDH release cytotoxicity (0.1 µM) | LDH release cytotoxicity (0.3162278 µM) | LDH release cytotoxicity (1 µM) | LDH release cytotoxicity (3.16228 µM) | LDH release cytotoxicity (10 µM) | LDH release cytotoxicity (31.6228 µM) | LDH release cytotoxicity (100 µM) | further results
CN1CSC(=S)N(C)C1 [Dazomet] | -1.04 ± 1.2% | -0.753 ± 0.32% | -1.34 ± 1.3% | -1.86 ± 0.33% | -2.37 ± 0.28% | -3.44 ± 0.043% | 13.1 ± 2.2% | 78 ± 4.3% | –
CNC(=O)CSP(=S)(OC)OC [Dimethoate] | 0.0142 ± 0.81% | 0.0233 ± 0.62% | -0.779 ± 0.49% | -1.24 ± 0.51% | -0.679 ± 0.19% | -0.364 ± 0.63% | 0.327 ± 0.06% | 0.574 ± 0.89% | –
CNC(=S)S [Metam-sodium hydrate] | -0.462 ± 0.042% | -0.61 ± 0.22% | -0.991 ± 0.45% | -1.25 ± 0.15% | -0.486 ± 0.41% | -0.405 ± 0.015% | -0.218 ± 0.1% | 1.15 ± 0.05% | –
CC(C)=CCCC(C)=CC=O [3,7-Dimethyl-2,6-octadienal] | -1.99 ± 0.53% | -2.58 ± 0.96% | -1.66 ± 0.9% | -2.25 ± 1.7% | -0.875 ± 0.71% | -0.825 ± 1.8% | -0.501 ± 0.3% | 0.215 ± 0.38% | –
CCN(CC)C(=S)SSC(=S)N(CC)CC [Tetraethylthiuram disulfide] | – | – | – | – | – | – | – | – | LDH release cytotoxicity (0.0322552 µM): -1.43 ± 0.25%; LDH release cytotoxicity (0.102 µM): -2.15 ± 0.58%; LDH release cytotoxicity (0.322552 µM): -2.5 ± 0.25%; LDH release cytotoxicity (1.02 µM): -2.4 ± 0.028%; LDH release cytotoxicity (3.2255232 µM): -1.91 ± 0.23%; LDH release cytotoxicity (10.2 µM): -1.62 ± 0.69%; LDH release cytotoxicity (32.2552 µM): -0.659 ± 0.28%; LDH release cytotoxicity (102 µM): 3.01 ± 0.7%
CC(C)(C)c1cc(O)ccc1O [tert-Butylhydroquinone] | -1.59 ± 0.56% | -1.78 ± 0.34% | -2.28 ± 0.47% | -2.78 ± 0.035% | -3.35 ± 0.087% | -3.59 ± 0.29% | -4.19 ± 0.26% | -3.84 ± 0.12% | –
COC(=O)c1ccccc1C(=O)O [Monomethyl phthalate] | – | -1.99 ± 0.55% | – | -2.55 ± 0.86% | -1.73 ± 0.51% | -1.97 ± 0.5% | -0.563 ± 0.24% | 0.422 ± 0.27% | LDH release cytotoxicity (0.031623 µM): -0.688 ± 1.4%; LDH release cytotoxicity (0.316228 µM): -2.92 ± 0.47%
OC[C@@H](O)[C@@H](O)[C@H](O)[C@H](O)CO [D-Mannitol] | – | -2.88 ± 0.9% | – | -2.73 ± 0.41% | -2.39 ± 0.089% | -1.31 ± 0.43% | 0.669 ± 0.23% | 3.29 ± 0.076% | LDH release cytotoxicity (0.031623 µM): -0.135 ± 0.17%; LDH release cytotoxicity (0.316228 µM): -2.85 ± 0.69%
COC(=O)CC(=O)OC [Dimethyl malonate] | -0.603 ± 0.72% | -0.89 ± 0.63% | -0.395 ± 0.94% | -0.704 ± 0.96% | -0.831 ± 0.86% | -0.0631 ± 0.27% | 0.8 ± 0.35% | 1.4 ± 0.021% | –
CCCSC(=O)N(CCC)CCC [Vernolate] | -0.794 ± 1.3% | -0.827 ± 0.35% | -0.738 ± 0.55% | -2.07 ± 0.39% | -1.14 ± 0.45% | -0.659 ± 0.55% | 0.0809 ± 0.59% | 1.84 ± 0.39% | –
CCOP(=O)(NC(C)C)Oc1ccc(SC)c(C)c1 (configuration not stated) [Fenamiphos] | -1.16 ± 0.47% | -1.81 ± 0.1% | -1.38 ± 0.062% | -1.28 ± 0.5% | -1.13 ± 0.23% | -1.56 ± 0.18% | -1.03 ± 0.43% | 0.0773 ± 0.2% | –
CCCCCCC(=O)O [Heptanoic acid] | -1.47 ± 0.29% | -1.55 ± 0.4% | -1.65 ± 0.77% | -1.97 ± 0.48% | -1.6 ± 0.66% | -1.54 ± 0.79% | -1.75 ± 0.26% | 0.197 ± 0.072% | –
CCOC(=O)C(C)OC(=O)c1cc(Oc2ccc(C(F)(F)F)cc2Cl)ccc1[N+](=O)[O-] (configuration not stated) [Lactofen] | -1.17 ± 0.45% | -0.64 ± 0.62% | -0.974 ± 0.24% | -1.12 ± 0.48% | -0.601 ± 0.34% | -0.515 ± 0.76% | -0.447 ± 0.37% | 0.298 ± 0.45% | –
CCCCCCCc1ccc(O)cc1 [4-Heptylphenol] | -0.653 ± 0.82% | -1.61 ± 0.21% | -0.99 ± 0.5% | -1.03 ± 0.079% | -1.8 ± 0.76% | -0.598 ± 0.18% | -0.324 ± 0.52% | 0.525% | –
CCNc1cccc(C)c1 [N-Ethyl-3-methylaniline] | -1.25 ± 0.2% | -0.734 ± 0.64% | -1.13 ± 0.64% | -0.866 ± 0.67% | -0.912 ± 0.26% | -0.509 ± 0.35% | -0.424 ± 0.49% | 1.66 ± 0.53% | –
CCN(CC)C(=O)c1cc(S(=O)(=O)Cc2ccccc2)c(N2CCC(c3ccccc3)CC2)cc1N(CC)CCN(C)C [HMR1171 trifluoroacetate (1:1)] | – | – | – | – | – | – | – | – | LDH release cytotoxicity (0.01202 µM): 1.63 ± 0.27%; LDH release cytotoxicity (0.038 µM): 0.671 ± 0.26%; LDH release cytotoxicity (0.120167 µM): 0.671 ± 1.3%; LDH release cytotoxicity (0.38 µM): -0.413 ± 1.6%; LDH release cytotoxicity (1.20167 µM): -7.42 ± 1%; LDH release cytotoxicity (3.8 µM): 9.34 ± 2.8%; LDH release cytotoxicity (12.01666 µM): 1.9 ± 0.12%; LDH release cytotoxicity (38 µM): 82.5 ± 8.2%
CCCCCCCCCC[N+](C)(C)CCCCCCCCCC [Didecyldimethylammonium chloride] | – | – | – | – | – | – | – | – | LDH release cytotoxicity (0.0317809 µM): -1.08 ± 1.2%; LDH release cytotoxicity (0.1005 µM): -0.913 ± 0.75%; LDH release cytotoxicity (0.317809 µM): -0.501 ± 0.85%; LDH release cytotoxicity (1.005 µM): -2.08 ± 0.42%; LDH release cytotoxicity (3.17809 µM): -0.414 ± 0.69%; LDH release cytotoxicity (10.05 µM): 0.276 ± 0.56%; LDH release cytotoxicity (31.7809 µM): 0.202 ± 0.086%; LDH release cytotoxicity (100.5 µM): 1.33 ± 0.6%
CN(C)C(=S)SSC(=S)N(C)C [Thiram] | -1.63 ± 0.73% | -2.1 ± 1.1% | -2.29 ± 0.55% | -1.46 ± 0.3% | -2.28 ± 0.41% | -1.86 ± 0.66% | -1.13 ± 0.084% | 2.802 ± 0.022% | –
O=C1NS(=O)(=O)c2ccccc21 [Sodium saccharin hydrate] | -0.893 ± 0.069% | -1.1 ± 0.76% | -0.541 ± 0.034% | -1.22 ± 0.43% | -1.77 ± 0.0062% | -0.645 ± 0.66% | -0.345 ± 0.15% | 1.33 ± 0.048% | –

Source: the supplement of paper PMC7840683
